How the values were obtained:
human platelets, GPVI = assay: GPVI platelet aggregation (Convulxin-induced); type: cell-based; details: CVX-induced, FIG. 56 and FIG. 57
Procedure: GPVI platelet aggregation was measured for Formula (XVIII) and Formula XX-A (ibrutinib). Blood was obtained from untreated humans, and platelets were purified from […] by centrifugation. Cells were resuspended to a final concentration of […] in buffer containing 145 mmol/L NaCl, 10 mmol/L HEPES, 0.5 mmol/L Na2HPO4, 5 mmol/L KCl, 2 mmol/L MgCl2, 1 mmol/L CaCl2, and 0.1% glucose, at pH 7.4. Stock solutions of […] were prepared on the day of experimentation and added to platelet suspensions 5 minutes (37° C., 1200 rpm) before the induction of aggregation. Aggregation was assessed with a Chronolog Lumi-Aggregometer (model 540 VS; Chronolog, Havertown, Pa.) and permitted to proceed for 6 minutes after the addition of agonist. The results are reported as maximum percent change in light transmittance from baseline with platelet buffer used as a reference.
In FIG. 57, the results of CVX-induced (250 ng/mL) human platelet aggregation results before and 15 min after administration of the BTK inhibitors to 6 healthy individuals are shown.

[1] = system: human platelet-mediated thrombosis; assay: In vivo human thrombus formation in the VWF HA1 mice model (laser injury); details: human platelets preincubated with BTK inhibitor (0.1, 0.5 or 1 μM) 30 min; laser-induced injury in VWF HA1 mice
Procedure: Purified human platelets were preincubated with various concentrations of the BTK inhibitors (0.1 μM, 0.5 μM, or 1 μM) or DMSO and then administered to VWF HA1 mice, followed by laser-induced thrombus formation.
The objective of this study was to evaluate in vivo thrombus formation in the presence of BTK inhibitors.

[2] = system: pancreatic tumor-bearing mice; assay: Orthotopic pancreatic cancer model (KPC cells in C57BL/6 mice); type: in vivo; details: aggressive orthotopic PDA model, 15 mg/kg oral of each drug
Procedure: Cell line derived from KrasG12D;Trp53R^872H;Pdx1-Cre (KPC) mice were orthotopically implanted into the head of the pancreas after 35 passages. Based on the mice background from where the cell lines were generated, 1×10^6 cells were injected in C57BL/6 mice. Throughout the experiment, animals were provided with food and water ad libitum and subjected to a 12-h dark/light cycle. Animal studies were performed in accordance with the U.S. Public Health Service “Guidelines for the Care and Use of Laboratory Animals” (IACUC). After euthanization, pancreatic tumors were dissected out, weighed and single cell suspensions were prepared for flow cytometry analysis.

[3] = system: KPC derived mouse pancreatic cancer cells; assay: KPC derived mouse pancreatic cancer model, tumor infiltrating MDSCs and TAMs; type: in vivo; details: 15 mg/kg/BID given orally
Procedure: In this study, KPC derived mouse pancreatic cancer cells (KrasG12D;Trp53R^872H;Pdx1-Cre) were injected into the pancreases.
Single cell suspensions from tumor samples. Mouse tumor tissue was collected and stored in PBS/0.1% soybean trypsin inhibitor prior to enzymatic dissociation. Samples were finely minced with a scissors and mouse tissue was transferred into DMEM containing 1.0 mg/ml collagenase IV (Gibco), 0.1% soybean trypsin inhibitor, and 50 U/ml DNase (Roche) and incubated at 37 C for 30 min. with constant stirring while human tissue was digested in 2.0 mg/ml collagenase IV, 1.0 mg/ml hyluronidase, 0.1% soybean trypsin inhibitor, and 50 U/ml DNase for 45 minutes. Suspensions were filtered through a 100 micron filter and washed with FACS buffer (PBS/0.5% BSA/2.0 mM EDTA) prior to staining. Two million total cells were stained with antibodies as indicated. Intracellular detection of FoxP3 was achieved following permeabilization with BD Perm Buffer III (BD Biosciences) and eBioscience Fix/Perm respectively. Following surface staining, samples were acquired on a BD Fortessa and analyzed using FlowJo (Treestar) software.

ID8 ovarian cancer = assay: ID8 syngeneic orthotropic ovarian cancer murine model; type: in vivo, mice; details: 15 mg/kg/BID given orally
Excerpt: Human ovarian cancer models, including the ID8 syngeneic orthotropic ovarian cancer model and other animal models, are described in Fong and Kakar, J. Ovarian Res. 2009, 2, 12; Greenaway et al., Gynecol. Oncol. 2008, 108, 385-94; Urzua et al., Tumour Biol. 2005, 26, 236-44; Janat-Amsbury et al., Anticancer Res. 2006, 26, 3223-28; Janat-Amsbury et al., Anticancer Res. 2006, 26, 2785-89. […] The results of the study are shown in FIG. 42, FIG. 43, FIG. 44, FIG. 45, FIG. 46, FIG. 47, FIG. 48, and FIG. 49.

canine B cell lymphoma = assay: Veterinary clinical trial in companion dogs with lymphoma; type: in vivo; details: Arm 1 monotherapy, Arm 2 combination
Procedure: Enrollment has completed for Arm 1 and is ongoing for Arm 2.
Intra-subject dose escalation was allowed. Six of the 11 dogs that initiated at 2.5 or 5 mg/kg once daily were escalated and completed the study with dosages of 10 mg/kg twice daily. Among all the dose cohorts, 8 dogs had shrinkage of target lesions >20%; the best tumor responses were between 45-49% reduction in the sum of target lesions in two dogs.

| Compound | Inhibition of GPVI platelet aggregation (human platelets, GPVI) | Effect on human platelet-mediated thrombus formation [1] | Tumor burden [2] | Immature myeloid infiltrate ([2]; flow cytometry) | Number of immunosuppressive Tregs ([2]; flow cytometry) | Number of tumor associated macrophages ([2]; flow cytometry) | Tumor burden [3] | CD8+ T cells (ID8 ovarian cancer; tumor-bearing mice) | Immunosuppressive tumor associated Tregs (ID8 ovarian cancer; tumor-bearing mice) | Immunosuppressive tumor-associated lymphocytes (ID8 ovarian cancer; tumor-bearing mice) | Immunosuppressive B cells (ID8 ovarian cancer; tumor-bearing mice, total B cells and Bregs) | ID8 ovarian cancer growth (ID8 ovarian cancer; vs vehicle) | Complete responses (CR) (canine B cell lymphoma) | Median time on study (all subjects) (canine B cell lymphoma; preliminary) |
| --- | --- | --- | --- | --- | --- | --- | --- | --- | --- | --- | --- | --- | --- | --- |
| C=CC(=O)N1CCC[C@@H](n2nc(-c3ccc(Oc4ccccc4)cc3)c3c(N)ncnc32)C1 [Formula XX-A, 1-[(3R)-3-[4-amino-3-(4-phenoxyphenyl)-1H-pyrazolo[3,4-d]pyrimidin-1-yl]piperidin-1-yl]prop-2-en-1-one, reference compound] | significantly inhibits | able to limit this process |  |  |  |  |  |  |  |  |  |  |  |  |
| C=CC(=O)Nc1cccc(Nc2nc(Nc3ccc(OCCOC)cc3)ncc2F)c1 [Formula XXVII, N-(3-((5-fluoro-2-((4-(2-methoxyethoxy)phenyl)amino)pyrimidin-4-yl)amino)phenyl)acrylamide] |  | effect similar to Formula XX-A (ibrutinib) |  |  |  |  |  |  |  |  |  |  |  |  |
| CC#CC(=O)N1CCC[C@H]1c1nc(-c2ccc(C(=O)Nc3ccccn3)cc2)c2c(N)nccn12 [Formula (XVIII), (S)-4-(8-amino-3-(1-(but-2-ynoyl)pyrrolidin-2-yl)imidazo[1,5-a]pyrazin-1-yl)-N-(pyridin-2-yl)benzamide] | does not |  | significantly reduced | decreased | reduced | reduced | reduction | increase | significant reduction | significant reduction | significant reduction | impairs | not observed | 24 days |
